In US7923462B2, “Catechol derivative, pharmaceutical composition containing the same, use of the catechol derivative, and use of the pharmaceutical composition” (Kissei Pharmaceutical Co., Ltd., priority 2007, dated 2011):

What was measured:
recombinant human COMT = biological target: T1, recombinant human COMT (Homo sapiens, UniProt P21964); test: Human COMT inhibitory potency; assay type: biochemical; settings: catechol substrate, [3H]-S-adenosyl-L-methionine, 37° C. 30 minutes
T1 construct: GST (N, cleaved yes); made in house; host or cells: E. coli BL21 (DE3) CODON PLUS RP
T1 sequence (P21964 with tags, fused parts or gaps): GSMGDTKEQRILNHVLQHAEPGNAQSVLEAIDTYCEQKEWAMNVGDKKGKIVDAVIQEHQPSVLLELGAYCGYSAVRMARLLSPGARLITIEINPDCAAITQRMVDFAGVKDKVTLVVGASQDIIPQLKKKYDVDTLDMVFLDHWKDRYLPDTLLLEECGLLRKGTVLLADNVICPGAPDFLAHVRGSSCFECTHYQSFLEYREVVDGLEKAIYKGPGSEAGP

[1] = test system: rat cryopreserved hepatocytes; test: Rat hepatocyte toxicities (cell viability, ATP activity); assay type: cell-based; settings: concentration that shows 50% of the number of viable cells of control, 4 hours at 37° C.
[2] = Evaluation of plasma L-dopa concentration; assay type: in vivo, Sprague-Dawley rats; settings: percentage of control group, test compound 3 mg/kg oral, blood 2 hours later; for Plasma L-dopa (%) 4 hour: L-dopa 5 mg/kg and carbidopa 30 mg/kg oral 4 hours after; for Plasma L-dopa (%) 6 hour: L-dopa 5 mg/kg and carbidopa 30 mg/kg oral 6 hours after
[3] = test system: unilateral 6-hydroxydopamine-lesioned hemi-Parkinsonian rats; test: Potentiation of the efficacy of L-dopa, turning behavior; assay type: in vivo, Sprague-Dawley rats; settings: 10 mg/kg oral with 5 mg/kg L-dopa and 30 mg/kg carbidopa; for Total counts: contralateral rotation counts; for Duration: duration of contralateral turning response

Row | Structure (SMILES) | IC50 (recombinant human COMT) [µM] | EC50 [1] [µM] | Plasma L-dopa (%) 4 hour [2] [%] | Plasma L-dopa (%) 6 hour [2] [%] | Total counts [3] | Duration [3] [min]
1 | Cc1noc(-c2cc(O)c(O)c([N+](=O)[O-])c2)n1 [Comparative example 1, 5-(3-methyl-[1,2,4]oxadiazol-5-yl)-3-nitro-benzene-1,2-diol, reference compound] | 0.0132 | 172 | 143.3 ± 13.3 | 106.9 ± 18.2 |  | 
2 | Cc1nc(-c2cc(O)c(O)c([N+](=O)[O-])c2C(=O)c2ccccc2)no1 [Compound 1-1, [3,4-Dihydroxy-6-(5-methyl-[1,2,4]oxadiazol-3-yl)-2-nitro-phenyl]phenylmethanone] | 0.0094 | 683 | 182.9 ± 5.0 | 189.2 ± 32.8 | 2060.8 | 293.8
3 | CC(=O)c1c(-c2noc(C)n2)cc(O)c(O)c1[N+](=O)[O-] [Compound 1-2] |  | 645 |  |  | 2103.0 | 312.5
4 | Cc1nc(-c2cc(O)c(O)c([N+](=O)[O-])c2C(=O)C(C)C)no1 [Compound 1-3, 1-[3,4-dihydroxy-6-(5-methyl-[1,2,4]-oxadiazol-3-yl)-2-nitrophenyl]-2-methylpropane-1-one] | 0.0081 | 698 |  |  |  | 
5 | CCOC(=O)c1c(-c2noc(C)n2)cc(O)c(O)c1[N+](=O)[O-] [Compound 1-14] |  |  |  |  | 1678.4 | 275.0
6 | Cc1nc(-c2cc(O)c(O)c([N+](=O)[O-])c2C(=O)C2CCCCC2)no1 [Compound 1-20] | 0.0087 |  |  |  |  | 
7 | CCOCCc1nc(-c2cc(O)c(O)c([N+](=O)[O-])c2C(C)=O)no1 [Compound 1-37] | 0.0047 |  |  |  |  | 
8 | Cc1nc(-c2cc(O)c(O)c([N+](=O)[O-])c2C(=O)C(=O)NC2CCCCC2)no1 [Compound 1-40] | 0.0088 |  |  |  |  | 
9 | Cc1nc(-c2cc(O)c(O)c([N+](=O)[O-])c2C(=O)C(=O)N(C)C2CCCCC2)no1 [Compound 1-41] | 0.0047 |  |  |  |  | 
10 | Cc1ccc(C(=O)c2cc(O)c(O)c([N+](=O)[O-])c2)cc1 [Tolcapone, 3,4-dihydroxy-4′-methyl-5-nitro-benzophenone, reference compound] |  | 34.3 |  |  |  | 

Now from value to molecule, other results behind:

Row | IC50 (recombinant human COMT) [µM] | Structure (SMILES) | EC50 [1] [µM] | Plasma L-dopa (%) 4 hour [2] [%] | Plasma L-dopa (%) 6 hour [2] [%] | Total counts [3] | Duration [3] [min]
11 | 0.0093 | COC(=O)c1c(-c2noc(C)n2)cc(O)c(O)c1[N+](=O)[O-] [Compound 1-5, methyl 3,4-dihydroxy-6-(5-methyl-[1,2,4]-oxadiazol-3-yl)-2-nitrobenzoate] | > 1000 |  |  | 2051.9 | 321.3
12 | 0.0077 | COCc1nc(-c2cc(O)c(O)c([N+](=O)[O-])c2C(=O)OC)no1 [Compound 1-9] | > 1000 |  |  |  | 
13 | 0.0083 | Cc1nc(-c2cc(O)c(O)c([N+](=O)[O-])c2C(=O)c2ccccc2F)no1 [Compound 1-22] | 523 |  |  |  | 
14 | 0.0076 | Cc1nc(-c2cc(O)c(O)c([N+](=O)[O-])c2C(=O)c2ccno2)no1 [Compound 1-24] | > 1000 |  |  |  | 
